Experimental findings from patent US20170087125A1, “FLAVONOID COMPOSITIONS FOR THE TREATMENT OF CANCER” (Augusta University Research Institute, Inc., priority 2015, published 2017) are described below.

For orientation: Cmax means the maximum level reached in the sampled fluid or tissue. What is called Tmax is the time from dosing to the highest level.

This series can be described thus: Pharmacokinetics in rat plasma after oral and intravenous administration. The class given is in vivo, Sprague Dawley rats. The note with it: for half-life / AUC / Cmax / Tmax: male, Sprague-Dawley, rat, plasma, 100 mg/kg; for half-life: read-out: t1/2 half-life (converted); for Cmax / Tmax: oral; for Bioavailabilty: rat plasma, ProFine 100 mg/kg (n = 3), oral vs IV. On the procedure: Blood samples were collected at 9 time points, i.e., 0 min, 15 min, 30 min, 60 min, 2 h, 4 h, 8 h, 12 h and 24 h. Plasma levels of Luteolin, Quercetin and Kaempferol were analyzed using HPLC. […]

Read-outs that look alike come from different tables or passages of the source.

On to `O=c1cc(-c2ccc(O)c(O)c2)oc2cc(O)cc(O)c12` [Ingredient 1, 3′,4′,5,7-tetrahydroxyflavone], for which the half-life is 2.26 h, the Cmax came to 127 ng/mL, the Tmax worked out at 1 h and the Bioavailabilty was 1.30%. Moreover, the AUC (iv, read-out: AUC0.24 (IV)) was determined as 90100 ng·h/mL. The AUC (po, read-out: AUC0.24 (Oral)) came to 1170 ng·h/mL.
For `O=c1c(O)c(-c2ccc(O)c(O)c2)oc2cc(O)cc(O)c12` [Ingredient 2, 3,3′,4′5,7-Penthydroxyflavone], the half-life is 1.71 h, the peak level (Cmax) was 51.9 ng/mL, the Tmax stood at 1 h and the Bioavailabilty was 0.91%. The AUC (iv, read-out: AUC0.24 (IV)) was 27200 ng·h/mL. Under “po, read-out: AUC0.24 (Oral)”, the AUC was 248 ng·h/mL.
As to `O=c1c(O)c(-c2ccc(O)cc2)oc2cc(O)cc(O)c12` [Ingredient 3, 3,5,7-trihydroxy-2-(4-hydroxyphenyl)-4H-1-benzopyran-4-one], the half-life was 2.45 h, the concentration peaked (Cmax) at 165 ng/mL, the Tmax was found to be 4 h and the Bioavailabilty is listed as 2.89%. Further, the AUC (iv, read-out: AUC0.24 (IV)) was 93800 ng·h/mL. For the same compound, the AUC (po, read-out: AUC0.24 (Oral)) was determined as 2710 ng·h/mL.
